Where a name gives a salt, the structure may show the parent alone. Read-outs that look alike come from different tables or passages of the source.
Legend:
[1] = system: NF-kB-dependent TNF-α secretion; assay: TNF-α secretion assay in THP-1 cells (counter screen, HTRF); format: cell-based; details: Pam3CSK4-stimulated, 3 hours
Method in brief: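 THP-1 cells were treated with compound, then stimulated with 1 μg/mL LPS or 100 ng/mL Pam3CSK4 for 3 h. Secreted TNF-α in supernatant was measured by HTRF, with viability monitored in parallel. IC50 from logistic fit of % inhibition versus concentration with Hill coefficient.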

[2] = system: NLRP3 inflammasome; assay: IL-1β secretion assay in PMA-differentiated THP-1 cells, nigericin-activated (HTRF); format: cell-based
Experimental: 10 μL supernatant was removed, and IL-1p levels were monitored using an HTRF assay (CisBio, #621L1PEC) according to manufacturers' instructions. Viability and pyroptosis was monitored with the addition of PrestoBlue cell viability reagent (Life Technologies, #A13261) directly to the cell culture plate.
IC50 values were calculated from the plot of percentage of inhibition versus the inhibitor concentration by a logistics fit according to: y=A2+(A1−A2)/(1+(x/IC50)^p) where y is the %-inhibition at the inhibitor concentration, x. A1 is the lowest inhibition value, i.e. 0%, and A2 the maximum inhibition value, i.e. 100%. The exponent, p, is the Hill coefficient. The curve fitting was conducted with an internally developed software suite.
NLRP3-dependent IL-1β secretion was stimulated in PMA-differentiated THP-1 cells by the addition of nigericin, and cytokines were measured in the […] after 3 hours. As discussed above, activation of the NLRP3 inflammasome requires both an NF-kB-dependent priming step and the addition of a NLRP3 activator.

[3] = Homo sapiens, 15 μM nigericin, 3 hours, read-out: IL-1β IC50

For `Cc1cc(C(F)(F)F)cc(O)c1-c1ccc(N[C@@H]2CC[C@@H]3CC[C@H]2N3CCO)nn1` [Ex 86b, 2-(6-(((1R,2R,5R)-8-(2-Hydroxyethyl)-8-azabicyclo[3.2.1]octan-2-yl)amino)pyridazin-3-yl)-3-methyl-5-(trifluoromethyl)phenol], the IC50 [1] was greater than 100 µM and the IC50 ([2]; read-out: IL-1β IC50, 15 μM nigericin, 3 hours) was 0.0018 µM.
In the case of `Cc1cc(C(F)(F)F)cc(O)c1-c1ccc(NC[C@](C)(O)CO)nn1` [Ex 88a, (S)-3-((6-(2-Hydroxy-6-methyl-4-(trifluoromethyl)phenyl)pyridazin-3-yl)amino)-2-methylpropane-1,2-diol], the IC50 ([1]; Homo sapiens) is reported as 41 µM and the IC50 [2, 3] is reported as 0.0623 µM.
For `Cc1cc(C(F)(F)F)cc(O)c1-c1ccc(NC[C@@](C)(O)CO)nn1` [Ex 88b, (R)-3-((6-(2-Hydroxy-6-methyl-4-(trifluoromethyl)phenyl)pyridazin-3-yl)amino)-2-methylpropane-1,2-diol], the IC50 ([1]; Homo sapiens) was greater than 100 µM and the IC50 [2, 3] was 0.0605 µM.
`Cc1cc(C(F)(F)F)cc(O)c1-c1ccc(N[C@H]2CC[C@H](O)[C@@H]2O)nn1` [Ex 89a, (1S,2R,3S)-3-((6-(2-Hydroxy-6-methyl-4-(trifluoromethyl)phenyl)pyridazin-3-yl)amino) cyclopentane-1,2-diol] was tested, and the IC50 ([1]; Homo sapiens) was greater than 100 µM and the IC50 [2, 3] was 0.0597 µM.
With `Cc1cc(C(F)(F)F)cc(O)c1-c1ccc(N[C@@H]2CC[C@@H](O)[C@H]2O)nn1` [Ex 89b, (1R,2S,3R)-3-((6-(2-Hydroxy-6-methyl-4-(trifluoromethyl)phenyl)pyridazin-3-yl)amino)cyclopentane-1,2-diol] the IC50 ([1]; Homo sapiens) was greater than 100 µM and the IC50 [2, 3] was 0.182 µM.
`Cc1cc(C(F)(F)F)cc(O)c1-c1ccc(NC[C@@H](O)C(C)C)nn1` [Ex 90a, (S)-2-(6-((2-Hydroxy-3-methylbutyl)amino)pyridazin-3-yl)-3-methyl-5-(trifluoromethyl)phenol] was tested, and the IC50 ([1]; Homo sapiens) was greater than 33 µM and the IC50 [2, 3] was 0.0642 µM.
`Cc1cc(C(F)(F)F)cc(O)c1-c1ccc(NC[C@H](O)C(C)C)nn1` [Ex 90b, (R)-2-(6-((2-Hydroxy-3-methylbutyl)amino)pyridazin-3-yl)-3-methyl-5-(trifluoromethyl) phenol] showed an IC50 ([1]; Homo sapiens) greater than 100 µM and an IC50 [2, 3] of 0.115 µM.
`Cc1cc(C(F)(F)F)cc(O)c1-c1ccc(NCC2(O)CCCC2)nn1` [Ex 98, 2-(6-(((1-Hydroxycyclopentyl)methyl)amino)pyridazin-3-yl)-3-methyl-5-(trifluoromethyl)phenol] was tested, and the IC50 ([1]; Homo sapiens) was greater than 100 µM and the IC50 [2, 3] was 0.115 µM.
Work on `Cc1cc(-c2c(C)cc(C(F)(F)F)cc2O)nnc1NC1CCC(=O)N(C)C1` (stereo not shown) [Ex 99, 5-((6-(2-Hydroxy-6-methyl-4-(trifluoromethyl)phenyl)-4-methylpyridazin-3-yl)amino)-1-methylpiperidin-2-one] yielded an IC50 ([1]; Homo sapiens) greater than 100 µM and an IC50 [2, 3] of 0.075 µM.
Work on `Cc1cc(C)c(-c2ccc(NCCc3ccc(S(N)(=O)=O)cc3)nn2)c(O)c1` [Ex 103, 4-(2-((6-(2-Hydroxy-4,6-dimethylphenyl)pyridazin-3-yl)amino)ethyl)benzenesulfonamide] yielded an IC50 ([1]; Homo sapiens) of 16 µM and an IC50 [2, 3] of 0.136 µM.
Work on `Cc1cc(-c2c(C)cc(C(F)(F)F)cc2O)nnc1N[C@@H]1CCC[N+](C)([O-])C1` (stereo partly drawn) [Ex 104, (3R)-3-((6-(2-Hydroxy-6-methyl-4-(trifluoromethyl)phenyl)-4-methylpyridazin-3-yl)amino)-1-methylpiperidine 1-oxide TFA-salt] yielded an IC50 ([1]; Homo sapiens) greater than 100 µM and an IC50 [2, 3] of 0.059 µM.

Reference: patent US11208399B2, “NLRP3 inflammasome inhibitors” (Novartis AG, priority 2019, dated 2021)
